# Experimental data taken from patent US20050136121A1, “Oral peptide delivery system with improved bioavailability” (SHEAR/KERSHMAN LABORATORIES, INC., priority 2003, published 2005).
# Experiment: Study 2: female adult dogs fed formulations or injected with Humulin, serum glucose level
# Format: in vivo
# Method: Female adult dogs were fed the formulations from Examples 3 to 5. Further dogs were injected with Humulin and given 0.05 mL of 100 U/mL. Before being fed or injected the formulations, the animals fasted overnight. The dogs were fed 4 to 6 hours after dosing.
substance,measurement,setting,value
"Humulin: injected insulin comparator, 0.05 mL of 100 U/mL",time after dosing at which glucose level began increasing,injected 0.05 mL of 100 U/mL,about 2 hours
same,drop in glucose levels,"injected 0.05 mL of 100 U/mL, within minutes",67%
same,time at which glucose levels returned to normal levels,"injected, after eating",about 12 hours
same,glucose levels at hours 6 to 10,"injected, ate dog food at 4 to 6 hours",above the normal levels
